Data taken from PubChem BioAssay (NCI).
Values joined by “and” are separate entries in the source; they are usually repeats but may differ in a detail not shown here. Identical values can stand only once.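 Dose response: 5 concentrations. Exposure: 48 h. Format: 96-well plates. Endpoint: linear interpolation; highest concentration if not reached. GI50 is the concentration that inhibits growth by half. The concentration for full growth arrest is given as TGI.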

Assays:
Experiment in all cases: DTP human tumour cell line panel, 48 h
OVCAR-5 ovarian = system: OVCAR-5 ovarian
HCC-2998 colon = system: HCC-2998 colon
SR leukemia = system: SR leukemia
SK-MEL-2 melanoma = system: SK-MEL-2 melanoma
RXF 393 renal = system: RXF 393 renal
SK-OV-3 ovarian = system: SK-OV-3 ovarian
HCT-116 colon = system: HCT-116 colon
M14 melanoma = system: M14 melanoma
HOP-62 NSCLC = system: HOP-62 NSCLC
NCI-H522 lung = system: NCI-H522 lung
NCI-H23 lung = system: NCI-H23 lung
786-0 renal = system: 786-0 renal
CAKI-1 renal = system: CAKI-1 renal
A549 NSCLC = system: A549 NSCLC
HCT-15 colon = system: HCT-15 colon
NCI/ADR-RES ovarian = system: NCI/ADR-RES ovarian
MDA-MB-231 breast = system: MDA-MB-231 breast
BT-549 breast = system: BT-549 breast
MDA-N = system: MDA-N

Compound | TGI (OVCAR-5 ovarian) [µM] | TGI (HCC-2998 colon) [µM] | TGI (SR leukemia) [µM] | TGI (SK-MEL-2 melanoma) [µM] | TGI (RXF 393 renal) [µM] | TGI (SK-OV-3 ovarian) [µM] | TGI (HCT-116 colon) [µM] | TGI (M14 melanoma) [µM] | TGI (HOP-62 NSCLC) [µM] | TGI (NCI-H522 lung) [µM] | TGI (NCI-H23 lung) [µM] | TGI (786-0 renal) [µM] | TGI (CAKI-1 renal) [µM] | TGI (A549 NSCLC) [µM] | TGI (HCT-15 colon) [µM] | TGI (NCI/ADR-RES ovarian) [µM] | TGI (MDA-MB-231 breast) [µM] | TGI (BT-549 breast) [µM] | TGI (MDA-N) [µM] | GI50 (RXF 393 renal)
COC1=CC(=O)c2c(cc3c(c2O)-c2c(OC)cc4cc5c(c(O)c4c2OC(=O)CC(C)(O)C3)C(=O)CC(C)(O)C5)C1=O (stereo not given) | 4.27 | 3.21 | 5.07 | 2.71 | 3.89 | 7.47 | 7.58 | 2.66 | 2.76 | 2.67 | 2.46 | 7.72 | 5.87 | 10.7 | 4.36 | – | – | – | – | –
CN1c2ccccc2C(=O)NC12CCNCC2 | > 100 | > 100 | > 100 | – | > 100 | > 100 | > 100 | > 100 | > 100 | – | > 100 | > 100 | – | > 100 | – | > 100 | – | – | – | –
CCCCCC#COC1CC(C)CC[C@@H]1C(C)C (stereo not given in full) | > 100 | > 100 | – | > 100 | 86.9 | > 100 | > 100 | > 100 | > 100 | 52.2 | > 100 | > 100 | > 100 | > 100 | > 100 | – | – | – | – | –
CN1CCN(c2ccc3[nH]c(C4=C(O)C(=O)[C@@H]5C(=C4O)N=C(CO)N5C)nc3n2)CC1 | > 100 | > 100 | – | – | > 100 | > 100 | > 100 | > 100 | > 100 | > 100 | > 100 | > 100 | > 100 | > 100 | > 100 | > 100 | > 100 | > 100 | – | –
N#CCC1C2CC3C(C2=O)C13 (stereo not given) | > 100 | > 100 | > 100 | > 100 | > 100 | > 100 | > 100 | > 100 | > 100 | > 100 | > 100 | > 100 | > 100 | > 100 | > 100 | > 100 | > 100 | – | > 100 | –
[N-]=[N+]=CC(=O)OCC1NC(=O)C(COC(=O)C=[N+]=[N-])NC1=O (stereo not given) | > 100 | > 100 | > 100 | > 100 | > 100 | > 100 | > 100 | > 100 | > 100 | – | > 100 | > 100 | > 100 | > 100 | > 100 | > 100 | > 100 | – | > 100 | 15.8 µM and > 100 µM
CCC(c1ccc(OC)cc1)C1NC(=S)NC1=O (stereo not given) | > 50 | > 50 | – | > 50 | > 50 | > 50 | > 50 | > 50 | > 50 | > 50 | > 50 | > 50 | > 50 | > 50 | > 50 | > 50 | > 50 | – | > 50 | –
CCCn1c(=O)c2nn3c(=O)n(CCC)c(=O)c3nn2c1=O | > 100 | > 100 | > 100 | > 100 | > 100 | > 100 | > 100 | > 100 | > 100 | > 100 | > 100 | > 100 | > 100 | > 100 | > 100 | > 100 | – | > 100 | > 100 | –
Cc1cccc(N=C/C=C(\Cl)c2ccc3ccccc3c2)c1 | > 65.6 | – | 8.24 | 68.9 | > 56.9 | 53.5 | 9.02 | 38 | 35.4 | > 78.7 | 34.5 | 34.9 | 34.5 | > 100 | 28.2 | 47.7 | 33.6 | 44.5 | – | –
CC(=O)Oc1ccc(Nn2c3ccccc3c3ccccc32)c(C)c1 | > 100 | 79.5 | 65.5 | > 100 | 80.4 | > 100 | > 100 | 74.3 | > 100 | 46.3 | > 100 | 41.7 | – | > 100 | 82.4 | – | – | – | – | –
c1ccc2nn(C3CCCO3)nc2c1 (stereo not given) | > 100 | > 100 | – | > 100 | > 100 | > 100 | > 100 | > 100 | > 100 | > 100 | > 100 | > 100 | > 100 | > 100 | > 100 | > 100 | > 100 | > 100 | > 100 | –
C/C1=C/C[C@@H](/C(C)=C/c2csc(C)n2)OC(=O)C[C@H](O)C(C)(C)C(=O)[C@H](C)[C@@H](O)[C@@H](C)CCC1 | 0.189 | 0.125 | – | 0.188 | < 0.0001 | 0.214 | 0.173 | 0.23 | 0.259 | < 0.0001 | 0.169 | 0.228 | 0.305 | 0.181 | 0.237 | 0.000238 | – | 0.198 | – | –
CC(C)COP(C)(=O)C(N)(C(F)(F)F)C(F)(F)F (stereo not given) | > 100 | > 100 | > 100 | > 100 | – | > 100 | > 100 | > 100 | > 100 | – | > 100 | > 100 | > 100 | > 100 | > 100 | > 100 | > 100 | – | > 100 | –
CN1C(C)(C)CC(=O)C(Br)C1(C)C (stereo not given) | > 100 | – | > 100 | > 100 | – | > 100 | – | > 100 | > 100 | > 100 | > 100 | > 100 | > 100 | > 100 | > 100 | > 100 | – | > 100 | > 100 | –
C=CC(=O)NCNC(=O)C=C | > 100 | > 100 | > 100 | > 100 | – | > 100 | > 100 | > 100 | > 100 | > 100 | > 100 | > 100 | > 100 | > 100 | > 100 | – | – | – | – | –
Oc1c(Cl)c(Cl)c(O)c(CCNc2nccs2)c1Cl | 39 | 30.3 | 25.6 | 48.4 | 20.3 | 30.3 | 23.6 | 36 | 40.7 | – | 37.9 | 33.5 | 29.3 | 49.8 | 31 | 50.5 | 2.16 | – | – | –
COc1cc2cc3c4cc(OC)c(OC)cc4cc[n+]3c(C)c2cc1OC | > 100 | > 100 | – | > 100 | – | > 100 | > 100 | – | – | > 100 | > 100 | 37.9 | > 100 | > 100 | > 100 | > 100 | > 100 | > 100 | > 100 | –
O=P(CCOc1ccccc1OCCP(=O)(c1ccccc1)c1ccc2c(c1)OCCOCCOCCOCCO2)(c1ccccc1)c1ccc2c(c1)OCCOCCOCCOCCO2 (stereo not given) | > 100 | > 100 | > 100 | > 100 | > 100 | > 100 | > 100 | > 100 | > 100 | > 100 | > 100 | > 100 | – | > 100 | > 100 | – | – | – | – | –
CC(C)OC(=O)NNc1cccc(Cl)c1 | > 100 | > 100 | > 100 | > 100 | > 100 | > 100 | > 100 | > 100 | > 100 | – | > 100 | > 100 | > 100 | > 100 | > 100 | > 100 | > 100 | – | > 100 | –
O=C1C=CC(=O)c2cc(Sc3ccccc3)c(=O)c(Sc3ccccc3)cc21 | – | > 100 | > 100 | > 100 | 51.2 | > 100 | > 100 | > 100 | > 100 | 25.4 | > 100 | > 100 | > 100 | > 100 | > 100 | – | – | – | – | –
Cc1c(-c2nc(N)c(C#N)c(N)c2C#N)c(=O)oc2ccccc12 | > 100 | > 100 | – | > 100 | > 100 | > 100 | > 100 | > 100 | > 100 | – | > 100 | > 100 | > 100 | > 100 | > 100 | > 100 | > 100 | > 100 | > 100 | –
O=C(CCN1CCC(CCO)CC1)Nc1ccc2c(c1)C(=O)c1ccc(NC(=O)CCN3CCC(CCO)CC3)cc1C2=O | > 100 | 88.7 | 55.7 | 13.6 | > 100 | 46.3 | 31.2 | – | 37.5 | 24 | > 100 | 27.2 | > 100 | > 100 | > 100 | – | – | – | – | –
Cc1ccc(C(=O)N2CCCCC2)cc1N=NN(C)C | > 100 | > 100 | > 100 | > 100 | – | – | > 100 | > 100 | > 100 | > 100 | > 100 | > 100 | > 100 | > 100 | > 100 | – | – | – | – | –
CCCCOC(=O)NC(Nc1ccc(S(=O)(=O)Nc2ncccn2)cc1)(C(F)(F)F)C(F)(F)F | > 100 | 65.9 | > 100 | – | > 100 | > 100 | > 100 | > 100 | > 100 | > 100 | > 100 | > 100 | > 100 | > 100 | > 100 | > 100 | > 100 | – | > 100 | –
O=C1CC(C(OCc2ccccc2)C(OCc2ccccc2)C(OCc2ccccc2)C(COCc2ccccc2)OCc2ccccc2)CC(=O)N1 (stereo not given) | > 100 | > 100 | > 100 | – | > 100 | – | – | > 100 | > 100 | – | > 100 | > 100 | – | > 100 | > 100 | > 100 | – | > 100 | > 100 | –
CC1CCC2CC1NC(=O)CCOCCC(=O)NC2(C)C (stereo not given) | > 100 | > 100 | > 100 | – | – | > 100 | > 100 | > 100 | > 100 | > 100 | > 100 | > 100 | – | > 100 | > 100 | – | > 100 | > 100 | > 100 | –
CC1(C)SCc2nc3ccccc3n21 | > 100 | > 100 | – | > 100 | > 100 | > 100 | > 100 | > 100 | > 100 | > 100 | > 100 | > 100 | > 100 | > 100 | > 100 | > 100 | > 100 | – | > 100 | –
CN(C)CCN(C)C(=O)C1CCCN1C(=O)OCc1ccccc1 (stereo not given) | > 100 | > 100 | > 100 | > 100 | > 100 | > 100 | > 100 | > 100 | > 100 | 24 | > 100 | > 100 | – | > 100 | > 100 | – | – | – | – | –
C(=N\NC1=NCCN1)/c1cccc2cc3ccncc3nc12 | – | 18.3 | – | – | 13.2 | 23.5 | 3.19 | 28.3 | 19.7 | 11.9 | 25.5 | 4.51 | 14.1 | 20.2 | 13.1 | 25.2 | 6.13 | 29.4 | 11 | –
